A word on the IC50: it is the concentration needed to halve the response being measured. Lower therefore signals greater potency in that assay.

IC50 data for 21 compounds are collected here from patent US20240059703A1 (AMGEN INC., priority 2021, published 2024).

Assay [1] concerns A549 (human lung carcinoma) cells. The assay is described as follows: Cell Viability Assay (CellTiter-Glo), A549. In kind it is cell-based. Conditions: Homo sapiens, A549, 72 h. Summed up:
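Cells grown in RPMI 1640 with 10% FBS were seeded at 1.67E+04 cells/mL and left overnight at 37° C., 5% CO2. They were then exposed to serially diluted compound for 72 h, after which CellTiter-Glo luminescence was read, normalized to DMSO, and fitted to a 4-parameter logistic model for IC50.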
Background: In ATP-based viability assays light output follows the ATP content of the culture.

The subject of assay [2] is MIA PaCa-2 (human pancreatic carcinoma) cells. The assay is described as follows: Cell Viability Assay (CellTiter-Glo), MIA PaCa-2. The class given is cell-based. Conditions: Homo sapiens, MIA PaCa-2, 72 h. As for the experimental part: Serially-diluted compound or DMSO was added to the cells, and plates were incubated at 37° C., 5% CO2 for 72 h. Cell viability was measured using a CellTiter-Glo® Luminescent Cell Viability Assay kit (Promega) according to the manufacturer's protocol. The luminescence signal of treated samples was normalized to DMSO control, and data were analyzed using a 4-parameter logistic model to calculate IC50 values.

Another assay deals with KRAS G12C (Homo sapiens (Human), UniProt P01116, C118A/G12C). The assay is described as follows: 2 h coupled exchange assay. In kind it is biochemical. Conditions: Avg 2 h Coupled exchange IC50, 2 h compound pre-incubation. As for the experimental part: The term “2 h coupled exchange assay” or “20 h coupled exchange assay” as used herein refers to the assay described in the Section entitled “BIOLOGICAL EVALUATION.”
KRAS G12C, sequence (P01116 other isoform, or with tags, fused parts or gaps G12C/C118A): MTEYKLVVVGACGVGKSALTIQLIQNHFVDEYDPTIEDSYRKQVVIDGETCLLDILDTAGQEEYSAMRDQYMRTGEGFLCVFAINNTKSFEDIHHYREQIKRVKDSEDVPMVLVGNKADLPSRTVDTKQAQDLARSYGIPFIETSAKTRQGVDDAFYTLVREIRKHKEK

As to `C=CC(=O)N1CC2(CCN(c3nc4c(c(-c5c(C)ccc6cnn(C)c56)c3C)CCN(C3CCCN(C)C3)C4)C2)C1` [Example 18-20, 1-(6-(4-(1,6-dimethyl-1H-indazol-7-yl)-3-methyl-7-((3R)-1-methyl-3-piperidinyl)-5,6,7,8-tetrahydro-1,7-naphthyridin-2-yl)-2,6-diazaspiro[3.4]octan-2-yl)-2-propen-1-one|1-(6-(4-(1,6-dimethyl-1H-indazol-7-yl)-3-methyl-7-((3S)-1-methyl-3-piperidinyl)-5,6,7,8-tetrahydro-1,7-naphthyridin-2-yl)-2,6-diazaspiro[3.4]octan-2-yl)-2-propen-1-one], the IC50 in assay [1] was above 25000 nM; in assay [2], 135 nM; against KRAS G12C, 374 nM.
Turning to `C=CC(=O)N1CC2(CCN(c3nc4c(c(-c5cccc(F)c5O)c3C)CCN(c3scnc3C)C4)C2)C1` [Example 18-21, 1-(6-(4-(3-fluoro-2-hydroxyphenyl)-3-methyl-7-(4-methyl-1,3-thiazol-5-yl)-5,6,7,8-tetrahydro-1,7-naphthyridin-2-yl)-2,6-diazaspiro[3.4]octan-2-yl)-2-propen-1-one], the concentration for half-maximal inhibition (IC50) in assay [1] was above 25000 nM; in assay [2], 3370 nM; against KRAS G12C, 800 nM.
With `C=CC(=O)N1CC2(CCN(c3nc4cc(-c5scnc5C)cnc4c(-c4cccc(C)c4C)c3C#N)C2)C1` [Example 19-1, 4-(2,3-Dimethylphenyl)-7-(4-methyl-1,3-thiazol-5-yl)-2-(2-(2-propenoyl)-2,6-diazaspiro[3.4]octan-6-yl)-1,5-naphthyridine-3-carbonitrile], the results for the IC50 (in assay [1]; in assay [2]; at KRAS G12C) were above 5000 nM, 374 nM and 74 nM, respectively.
As to `C=CC(=O)N1CC2(CCN(c3nc4cc(-c5scnc5C)ccc4c(-c4ccccc4C)c3C#N)C2)C1` [Example 19-2, 4-(2-methylphenyl)-7-(4-methyl-1,3-thiazol-5-yl)-2-(2-(2-propenoyl)-2,6-diazaspiro[3.4]octan-6-yl)-3-quinolinecarbonitrile], the results for the IC50 (in assay [1]; in assay [2]; on KRAS G12C) were above 5000 nM, 1450 nM and 126 nM, respectively.
Turning to `C=CC(=O)N1CC2(CCN(c3nc4cc(-c5scnc5C)ccc4c(-c4c(O)cccc4F)c3C#N)C2)C1` [Example 19-3, 4-(2-fluoro-6-hydroxyphenyl)-7-(4-methyl-1,3-thiazol-5-yl)-2-(2-(2-propenoyl)-2,6-diazaspiro[3.4]octan-6-yl)-3-quinolinecarbonitrile], the figures for the IC50 (in assay [1]; in assay [2]; against KRAS G12C) were 4180 nM, 717 nM and 58 nM, respectively.
In the same order, the values of `C=CC(=O)N1CC2(CCN(c3nc4cc(-c5scnc5C)cnc4c(-c4ccc(F)cc4F)c3C#N)C2)C1` [Example 19-5, 4-(2,4-difluorophenyl)-7-(4-methyl-1,3-thiazol-5-yl)-2-(2-(2-propenoyl)-2,6-diazaspiro[3.4]octan-6-yl)-1,5-naphthyridine-3-carbonitrile] are above 5000 nM, 452 nM and 96 nM.
Take `C=CC(=O)N1CC2(CCN(c3nc4cc(-c5scnc5C)cnc4c(-c4ccccc4OC)c3C#N)C2)C1` [Example 19-6, 4-(2-methoxyphenyl)-7-(4-methyl-1,3-thiazol-5-yl)-2-(2-(2-propenoyl)-2,6-diazaspiro[3.4]octan-6-yl)-1,5-naphthyridine-3-carbonitrile]: the IC50 was above 5000 nM in assay [1], 1130 nM in assay [2] and 363 nM against KRAS G12C.
As for `C=CC(=O)N1CC2(CCN(c3nc4cc(-c5cncn5C)cnc4c(-c4ccccc4F)c3C#N)C2)C1` [Example 19-7, 4-(2-fluorophenyl)-7-(1-methyl-1H-imidazol-5-yl)-2-(2-(2-propenoyl)-2,6-diazaspiro[3.4]octan-6-yl)-1,5-naphthyridine-3-carbonitrile], the concentration for half-maximal inhibition (IC50) in assay [1] worked out at 14100 nM; in assay [2], 495 nM; on KRAS G12C it was 789 nM.
For `C=CC(=O)N1CC2(CCN(c3nc4cc(-c5scnc5C)cnc4c(-c4ccc(F)cc4)c3C#N)C2)C1` [Example 19-8, 4-(4-fluorophenyl)-7-(4-methyl-1,3-thiazol-5-yl)-2-(2-(2-propenoyl)-2,6-diazaspiro[3.4]octan-6-yl)-1,5-naphthyridine-3-carbonitrile], the results for the IC50 (in assay [1]; in assay [2]; against KRAS G12C) were 11200 nM, 320 nM and 280 nM, respectively.
Regarding `C=CC(=O)N1CC2(CCN(c3nc4cc(-c5sc(CO)nc5C)cnc4c(-c4ccccc4Cl)c3C#N)C2)C1` [Example 19-9, 4-(2-chlorophenyl)-7-(2-(hydroxymethyl)-4-methyl-1,3-thiazol-5-yl)-2-(2-(2-propenoyl)-2,6-diazaspiro[3.4]octan-6-yl)-1,5-naphthyridine-3-carbonitrile], the half-inhibitory concentration (IC50) was above 5000 nM in assay [1], 204 nM in assay [2] and 56 nM at KRAS G12C.
Turning to `C=CC(=O)N1CC2(CCN(c3nc4cc(-c5scnc5CO)cnc4c(-c4ccccc4F)c3C#N)C2)C1` [Example 19-10, 4-(2-fluorophenyl)-7-(4-(hydroxymethyl)-1,3-thiazol-5-yl)-2-(2-(2-propenoyl)-2,6-diazaspiro[3.4]octan-6-yl)-1,5-naphthyridine-3-carbonitrile], the IC50 stood at 15300 nM in assay [1], 1130 nM in assay [2] and 113 nM on KRAS G12C.
For the compound `C=CC(=O)N1CC2(CCN(c3nc4cc(-c5scnc5C)ccc4c(-c4ccccc4Cl)c3C#N)C2)C1` [Example 20-1, 4-(2-chlorophenyl)-7-(4-methyl-1,3-thiazol-5-yl)-2-(2-(2-propenoyl)-2,6-diazaspiro[3.4]octan-6-yl)-3-quinolinecarbonitrile], the IC50 in assay [1] is above 5000 nM; in assay [2], 1560 nM; against KRAS G12C, 149 nM.
For `C=CC(=O)N1CC2(CCN(c3nc4cc(-c5scnc5C)ccc4c(-c4ccccc4F)c3C#N)C2)C1` [Example 20-2, 4-(2-fluorophenyl)-7-(4-methyl-1,3-thiazol-5-yl)-2-(2-(2-propenoyl)-2,6-diazaspiro[3.4]octan-6-yl)-3-quinolinecarbonitrile], the IC50 was above 5000 nM in assay [1], 1440 nM in assay [2] and 146 nM at KRAS G12C.
For the compound `C=CC(=O)N1CC2(CCN(c3nc4cc(OC)ccc4c(-c4ccccc4Cl)c3C#N)C2)C1` [Example 20-5, 4-(2-chlorophenyl)-7-methoxy-2-(2-(2-propenoyl)-2,6-diazaspiro[3.4]octan-6-yl)-3-quinolinecarbonitrile], the figures for the IC50 (in assay [1]; in assay [2]; at KRAS G12C) were 9110 nM, 5510 nM and 572 nM, respectively.
Take `C=CC(=O)N1CC2(CCN(c3nc4cc(-c5scnc5C)ccc4c(-c4cccc(C)c4C)c3C#N)C2)C1` [Example 20-6, 4-(2,3-dimethylphenyl)-7-(4-methyl-1,3-thiazol-5-yl)-2-(2-(2-propenoyl)-2,6-diazaspiro[3.4]octan-6-yl)-3-quinolinecarbonitrile]: the results for the IC50 (in assay [1]; in assay [2]; against KRAS G12C) were above 5000 nM, 1550 nM and 124 nM, respectively.
As for `C=CC(=O)N1CC2(CCN(c3nc4cc(-c5scnc5C)cnc4c(-c4ccccc4Cl)c3C#N)C2)C1` [Example 20-7, 4-(2-chlorophenyl)-7-(4-methyl-1,3-thiazol-5-yl)-2-(2-(2-propenoyl)-2,6-diazaspiro[3.4]octan-6-yl)-1,5-naphthyridine-3-carbonitrile], the IC50 in assay [1] is above 5000 nM; in assay [2] it was 534 nM; at KRAS G12C it was 131 nM.
In the same order, the values of `C=CC(=O)N1CC2(CCN(c3nc4cc(-c5scnc5C)c(C)cc4c(-c4ccccc4Cl)c3C#N)C2)C1` [Example 20-10, 2-(2-acryloyl-2,6-diazaspiro[3.4]octan-6-yl)-4-(2-chlorophenyl)-6-methyl-7-(4-methylthiazol-5-yl)quinoline-3-carbonitrile] are 6780 nM, 5380 nM and 890 nM.
`C=CC(=O)N1CC2(CCN(c3nc4cc(OC(C)C)ccc4c(-c4ccccc4Cl)c3C#N)C2)C1` [Example 20-11, 4-(2-chlorophenyl)-7-(2-propanyloxy)-2-(2-(2-propenoyl)-2,6-diazaspiro[3.4]octan-6-yl)-3-quinolinecarbonitrile]: the IC50 in assay [1] came to 8810 nM; in assay [2], 3100 nM; on KRAS G12C, 834 nM.
In the same order, the values of `C=CC(=O)N1CC2(CCN(c3nc4cc(-c5cncnc5)ccc4c(-c4ccc(F)cc4F)c3C#N)C2)C1` [Example 20-12, 4-(2,4-difluorophenyl)-2-(2-(2-propenoyl)-2,6-diazaspiro[3.4]octan-6-yl)-7-(5-pyrimidinyl)-3-quinolinecarbonitrile] are above 25000 nM, 2060 nM and 245 nM.
For `C=CC(=O)N1CC2(CCN(c3nc4cc(-c5scnc5C)ccc4c(-c4ccc(F)cc4F)c3C#N)C2)C1` [Example 20-13, 4-(2,4-difluorophenyl)-7-(4-methyl-1,3-thiazol-5-yl)-2-(2-(2-propenoyl)-2,6-diazaspiro[3.4]octan-6-yl)-3-quinolinecarbonitrile], the IC50 is 5980 nM in assay [1], 1070 nM in assay [2] and 104 nM on KRAS G12C.
For `C=CC(=O)N1CC2(CCN(c3nc4cc(-c5nccn5C)ccc4c(-c4ccc(F)cc4F)c3C#N)C2)C1` [Example 20-14, 4-(2,4-difluorophenyl)-7-(1-methyl-1H-imidazol-2-yl)-2-(2-(2-propenoyl)-2,6-diazaspiro[3.4]octan-6-yl)-3-quinolinecarbonitrile], the IC50 was 9150 nM in assay [1], 1350 nM in assay [2] and 243 nM against KRAS G12C.
